We go through eight molecules from BindingDB's records for doi:10.1021/acs.jmedchem.6b00705 (Leiden Institute of Chemistry, 2016).

The IC50 is the midpoint of a concentration-inhibition curve.

Bounds are passed on as bounds.

Experiment [1] is described as follows: Inhibition of catalytic activity of immunoproteasome 20s subunit beta2 in human Raji cells incubated for 1 hr by BODIPY(FL)-LU-112 probe based competitive activity based protein profiling assay.
Experiment [2] addresses Proteasome subunit beta type-2 (Homo sapiens, UniProt P49721). The experiment is described as follows: Inhibition of catalytic activity of constitutive proteasome 20s subunit beta2 in human Raji cells incubated for 1 hr by BODIPY(FL)-LU-112 probe based competitive activity based protein profiling assay.

As to `CC1=C(C(=O)N[C@H](C)C(=O)N[C@@H](Cc2c[nH]c3ccccc23)C(=O)N[C@@H](CC2CCCCC2)C(=O)[C@@]2(C)CO2)Cc2ccccc21`, the 50% inhibitory concentration (IC50) in experiment [1] and in experiment [2] was over 1000 nM each time.

In turn, `COc1ccc(C[C@H](NC(=O)[C@H](Cc2ccccc2)N=[N+]=[N-])C(=O)N[C@@H](Cc2ccccc2)C(=O)N[C@@H](CC(C)C)C(=O)[C@@]2(C)CO2)cc1` returned a half-inhibitory concentration (IC50) in experiment [2] of 110 nM.

`CC(C)C[C@H](NC(=O)CN1CCOCC1)C(=O)N[C@@H](C[C@H]1CC[C@H](C2CCCCC2)CC1)C(=O)N[C@@H](Cc1ccccc1)C(=O)N[C@@H](C)C(=O)[C@@]1(C)CO1`: the 50% inhibitory concentration (IC50) in experiment [1] and in experiment [2] was over 100000 nM throughout.

For the molecule `C[C@H](NC(=O)[C@H](Cc1ccccc1)NC(=O)[C@H](C[C@H]1CC[C@@H](c2ccccc2)CC1)NC(=O)[C@H](Cc1ccccc1)N=[N+]=[N-])C(=O)[C@@]1(C)CO1`, the half-maximal inhibitory concentration (IC50) is 300 nM in experiment [1] and over 100000 nM in experiment [2].

For `CC(C)C[C@H](NC(=O)[C@H](Cc1ccccc1)NC(=O)[C@H](CCc1ccccc1)NC(=O)[C@H](Cc1ccccc1)N=[N+]=[N-])C(=O)[C@@]1(C)CO1`, the IC50 in experiment [2] was determined as 60 nM.

The molecule `CC(C)C[C@H](NC(=O)[C@H](Cc1ccccc1)NC(=O)[C@H](CC1CCC(C)CC1)NC(=O)[C@H](Cc1ccccc1)N=[N+]=[N-])C(=O)[C@@]1(C)CO1` (some centres not stated) had a half-inhibitory concentration (IC50) in experiment [2] of 46 nM.

Regarding `C[C@H](NC(=O)[C@H](Cc1ccccc1)NC(=O)[C@H](C[C@H]1CC[C@H](c2ccccc2)CC1)NC(=O)[C@H](Cc1ccccc1)N=[N+]=[N-])C(=O)[C@@]1(C)CO1`, the 50% inhibitory concentration (IC50) in experiment [1] and in experiment [2] was over 100000 nM in each case.

Consider `CC(C)C[C@H](NC(=O)[C@H](Cc1ccccc1)NC(=O)[C@H](Cc1ccccc1)NC(=O)[C@H](Cc1ccccc1)N=[N+]=[N-])C(=O)[C@@]1(C)CO1` [(S)-2-azido-N-((S)-1-((S)-1-((S)-4-methyl-1-((R)-2-methyloxiran-2-yl)-1-oxopentan-2-ylamino)-1-oxo-3-phenylpropan-2-ylamino)-1-oxo-3-phenylpropan-2-yl)-3-phenylpropanamide], for which the 50% inhibitory concentration (IC50) in experiment [2] is 66 nM.
